# Test results published in ChEMBL document CHEMBL3044721, “Homology modeling of human CCR2 receptor” (Med Chem Res, 2011).
# Target: C-C chemokine receptor type 2 (Homo sapiens, UniProt P41597)
# Assay: Antagonist activity at Homo sapiens (human) CCR2 receptor
# Chain of C-C chemokine receptor type 2 (P41597 whole entry): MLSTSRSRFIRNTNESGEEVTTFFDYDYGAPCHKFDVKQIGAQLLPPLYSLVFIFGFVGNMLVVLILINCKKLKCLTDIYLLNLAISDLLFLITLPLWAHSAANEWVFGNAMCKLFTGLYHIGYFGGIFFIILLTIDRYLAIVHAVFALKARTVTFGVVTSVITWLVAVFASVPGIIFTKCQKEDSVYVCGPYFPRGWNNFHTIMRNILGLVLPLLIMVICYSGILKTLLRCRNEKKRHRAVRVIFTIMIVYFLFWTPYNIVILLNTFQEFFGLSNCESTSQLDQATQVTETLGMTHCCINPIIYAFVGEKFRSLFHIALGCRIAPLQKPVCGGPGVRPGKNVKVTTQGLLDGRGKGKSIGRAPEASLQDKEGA
row,IC50 [nM],Compound
1,5,CO[C@@H]1COCC[C@@H]1N[C@@H]1CC[C@](C(=O)N2CCc3ncc(C(F)(F)F)cc3C2)(C(C)C)C1
2,39,O=C(NCc1cc(C(F)(F)F)cc(C(F)(F)F)c1)[C@H](NCCN1CCCCC1)c1ccsc1
